# Experimental data published in patent US11183645B2, “Organic thin film and method for manufacturing organic thin film, organic electroluminescence element, display device, illumination device, organic thin film solar cell, thin film transistor, and coating composition” (NIPPON HOSO KYOKAI, priority 2015, dated 2021).
# Where two headings read alike, the source gives them in different places.
# Experiment: acid dissociation constant pKa of the first material
# Details: for pKa (H2O): acid dissociation constant in water, first materials of the electron injection layer
# Excerpt: In the present invention, the “pKa” usually means the “acid dissociation constant in water”. When the pKa cannot be measured in water, it means the “acid dissociation constant in dimethyl sulfoxide (DMSO)”, and when the pKa cannot be measured even in DMSO, it means the “acid dissociation constant in acetonitrile”. The pKa preferably means the “acid dissociation constant in water”.
SMILES,pKa (water),pKa,pKa (H2O)
"COc1cccnc1 [3-MeOP, 3-methoxypyridine]",4.88,–,–
"C1CCC2=NCCCN2CC1 [DBU, 1,8-diazabicyclo[5.4.0]undecene-7]",–,–,12.5
"CN(C)c1ccncc1 [4-DMAP, 4-dimethylaminopyridine]",9.7,–,–
CN(C)P(=NC(C)(C)C)(N=P(N(C)C)(N(C)C)N(C)C)N(C)C [Phosphazene base P2-t-Bu],–,–,20

# More lines, main results first:
pKa (water),pKa,SMILES,pKa (H2O)
–,≥ 1,C1=Cc2ccccc2C1 [indene],–
–,≥ 1,"CN(C)c1ccc2cc3ccc(N(C)C)cc3nc2c1 [AOB, acridine orange]",–
